Laboratory results as given in publication PMC6704710, “Preclinical evaluation of 3D185, a novel potent inhibitor of FGFR1/2/3 and CSF-1R, in FGFR-dependent and macrophage-dominant cancer models” (Journal of Experimental & Clinical Cancer Research : CR, 2019).

What was measured:
Assay in all cases: Eurofins kinase panel
Assay type in all cases: biochemical
Details in all cases: read-out: Inhibition rate (%)
CK1γ2(h) = biological target: T1, CK1γ2(h) (Homo sapiens, UniProt P78368)
T1 construct: purchased Eurofins (KinaseProfiler)
T1 sequence (P78368 whole entry): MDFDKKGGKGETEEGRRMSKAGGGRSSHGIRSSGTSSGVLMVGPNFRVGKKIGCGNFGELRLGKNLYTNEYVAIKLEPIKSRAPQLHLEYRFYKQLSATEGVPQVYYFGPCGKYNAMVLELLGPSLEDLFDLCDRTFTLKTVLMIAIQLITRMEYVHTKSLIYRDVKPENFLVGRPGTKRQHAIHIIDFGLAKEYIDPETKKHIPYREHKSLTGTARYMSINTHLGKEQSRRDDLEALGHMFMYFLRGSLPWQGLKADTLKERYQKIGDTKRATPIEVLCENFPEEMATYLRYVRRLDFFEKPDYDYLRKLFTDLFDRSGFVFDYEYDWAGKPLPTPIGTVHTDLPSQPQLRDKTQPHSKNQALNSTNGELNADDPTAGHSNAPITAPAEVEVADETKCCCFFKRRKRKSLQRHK

DYRK1A(h) = biological target: T2, DYRK1A(h) (Homo sapiens, UniProt Q13627)
T2 construct: purchased Eurofins (KinaseProfiler)

DYRK3(h) = biological target: T3, DYRK3(h) (Homo sapiens, UniProt O43781)
T3 construct: purchased Eurofins (KinaseProfiler)
T3 sequence (O43781 1-588): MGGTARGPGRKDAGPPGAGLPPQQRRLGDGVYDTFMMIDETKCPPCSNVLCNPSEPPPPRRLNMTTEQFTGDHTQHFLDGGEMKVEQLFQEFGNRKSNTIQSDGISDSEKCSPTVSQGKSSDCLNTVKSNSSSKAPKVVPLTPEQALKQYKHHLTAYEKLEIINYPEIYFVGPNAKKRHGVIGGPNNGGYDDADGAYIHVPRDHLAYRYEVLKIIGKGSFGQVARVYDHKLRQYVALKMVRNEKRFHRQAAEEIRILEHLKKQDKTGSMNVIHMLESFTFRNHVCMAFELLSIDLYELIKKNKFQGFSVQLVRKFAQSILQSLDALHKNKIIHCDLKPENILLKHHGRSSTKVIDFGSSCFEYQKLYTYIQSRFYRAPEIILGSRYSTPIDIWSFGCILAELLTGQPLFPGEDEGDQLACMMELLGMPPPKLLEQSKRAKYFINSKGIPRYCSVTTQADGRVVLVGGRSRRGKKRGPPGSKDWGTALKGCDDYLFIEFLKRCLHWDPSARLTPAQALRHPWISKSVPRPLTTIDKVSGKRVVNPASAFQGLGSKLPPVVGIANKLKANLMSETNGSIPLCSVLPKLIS

LIMK1(h) = biological target: T4, LIMK1(h) (Homo sapiens, UniProt P53667)
T4 construct: purchased Eurofins (KinaseProfiler)
T4 sequence (P53667 whole entry): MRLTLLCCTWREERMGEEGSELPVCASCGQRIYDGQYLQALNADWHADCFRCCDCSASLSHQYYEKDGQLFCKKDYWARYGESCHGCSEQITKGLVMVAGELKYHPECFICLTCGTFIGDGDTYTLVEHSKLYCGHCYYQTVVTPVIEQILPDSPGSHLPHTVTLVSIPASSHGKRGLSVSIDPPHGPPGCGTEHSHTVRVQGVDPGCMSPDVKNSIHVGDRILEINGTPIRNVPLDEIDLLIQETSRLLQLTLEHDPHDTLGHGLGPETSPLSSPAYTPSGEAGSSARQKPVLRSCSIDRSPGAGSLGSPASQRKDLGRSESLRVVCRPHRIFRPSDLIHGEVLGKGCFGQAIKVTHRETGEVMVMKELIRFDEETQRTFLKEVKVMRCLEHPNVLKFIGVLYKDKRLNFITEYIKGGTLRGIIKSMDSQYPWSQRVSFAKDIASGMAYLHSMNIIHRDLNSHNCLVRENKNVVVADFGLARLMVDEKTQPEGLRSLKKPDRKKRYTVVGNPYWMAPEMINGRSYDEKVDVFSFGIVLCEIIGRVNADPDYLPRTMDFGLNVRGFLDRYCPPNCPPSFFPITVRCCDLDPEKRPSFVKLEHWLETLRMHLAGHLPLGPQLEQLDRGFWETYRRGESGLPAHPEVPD

MAK(h) = biological target: T5, MAK(h) (Homo sapiens, UniProt P20794)
T5 construct: purchased Eurofins (KinaseProfiler)
T5 sequence (P20794 1-623): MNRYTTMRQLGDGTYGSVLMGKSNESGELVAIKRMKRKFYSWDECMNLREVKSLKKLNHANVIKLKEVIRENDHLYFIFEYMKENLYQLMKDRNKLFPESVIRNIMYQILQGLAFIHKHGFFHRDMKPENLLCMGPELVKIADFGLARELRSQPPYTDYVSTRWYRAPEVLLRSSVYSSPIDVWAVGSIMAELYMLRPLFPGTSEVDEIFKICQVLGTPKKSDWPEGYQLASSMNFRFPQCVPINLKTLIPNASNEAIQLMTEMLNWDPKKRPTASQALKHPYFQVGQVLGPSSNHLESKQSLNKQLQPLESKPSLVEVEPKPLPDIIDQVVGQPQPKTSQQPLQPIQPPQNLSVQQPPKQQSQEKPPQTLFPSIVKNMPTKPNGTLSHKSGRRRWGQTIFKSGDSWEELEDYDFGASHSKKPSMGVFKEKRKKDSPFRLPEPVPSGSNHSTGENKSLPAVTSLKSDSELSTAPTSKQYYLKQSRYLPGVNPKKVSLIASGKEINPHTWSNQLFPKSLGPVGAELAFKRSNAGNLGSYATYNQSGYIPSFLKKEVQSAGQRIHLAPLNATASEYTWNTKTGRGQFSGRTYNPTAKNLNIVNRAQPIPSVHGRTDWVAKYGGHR

Plk4(h) = biological target: T6, Plk4(h) (Homo sapiens, UniProt O00444)
T6 construct: purchased Eurofins (KinaseProfiler)
T6 sequence (O00444 1-970): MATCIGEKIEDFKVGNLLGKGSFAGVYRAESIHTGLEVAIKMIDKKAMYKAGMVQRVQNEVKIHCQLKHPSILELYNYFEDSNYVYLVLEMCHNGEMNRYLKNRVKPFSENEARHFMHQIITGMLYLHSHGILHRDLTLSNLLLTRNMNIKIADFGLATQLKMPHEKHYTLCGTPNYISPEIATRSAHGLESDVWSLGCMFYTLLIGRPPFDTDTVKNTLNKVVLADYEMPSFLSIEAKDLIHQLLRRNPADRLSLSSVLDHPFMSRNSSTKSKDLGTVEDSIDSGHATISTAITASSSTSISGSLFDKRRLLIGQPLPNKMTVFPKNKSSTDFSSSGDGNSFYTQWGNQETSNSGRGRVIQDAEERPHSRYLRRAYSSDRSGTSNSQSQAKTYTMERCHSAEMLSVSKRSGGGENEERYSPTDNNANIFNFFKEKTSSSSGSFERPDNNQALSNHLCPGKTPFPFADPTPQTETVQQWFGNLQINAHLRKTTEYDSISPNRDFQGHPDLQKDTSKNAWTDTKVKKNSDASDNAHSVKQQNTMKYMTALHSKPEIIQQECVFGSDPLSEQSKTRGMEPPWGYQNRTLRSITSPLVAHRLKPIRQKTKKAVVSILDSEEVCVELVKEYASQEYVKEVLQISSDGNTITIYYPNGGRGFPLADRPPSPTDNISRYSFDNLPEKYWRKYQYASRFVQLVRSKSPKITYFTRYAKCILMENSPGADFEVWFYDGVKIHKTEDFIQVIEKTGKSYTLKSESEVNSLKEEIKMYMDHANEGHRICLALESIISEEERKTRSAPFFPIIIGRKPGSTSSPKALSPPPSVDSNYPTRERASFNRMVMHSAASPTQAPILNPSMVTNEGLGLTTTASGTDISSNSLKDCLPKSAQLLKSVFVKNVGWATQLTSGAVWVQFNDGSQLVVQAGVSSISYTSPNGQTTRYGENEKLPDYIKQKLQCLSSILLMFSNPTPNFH

STK32C(h) = biological target: T7, STK32C(h) (Homo sapiens, UniProt Q86UX6)
T7 construct: purchased Eurofins (KinaseProfiler)
T7 sequence (Q86UX6 whole entry): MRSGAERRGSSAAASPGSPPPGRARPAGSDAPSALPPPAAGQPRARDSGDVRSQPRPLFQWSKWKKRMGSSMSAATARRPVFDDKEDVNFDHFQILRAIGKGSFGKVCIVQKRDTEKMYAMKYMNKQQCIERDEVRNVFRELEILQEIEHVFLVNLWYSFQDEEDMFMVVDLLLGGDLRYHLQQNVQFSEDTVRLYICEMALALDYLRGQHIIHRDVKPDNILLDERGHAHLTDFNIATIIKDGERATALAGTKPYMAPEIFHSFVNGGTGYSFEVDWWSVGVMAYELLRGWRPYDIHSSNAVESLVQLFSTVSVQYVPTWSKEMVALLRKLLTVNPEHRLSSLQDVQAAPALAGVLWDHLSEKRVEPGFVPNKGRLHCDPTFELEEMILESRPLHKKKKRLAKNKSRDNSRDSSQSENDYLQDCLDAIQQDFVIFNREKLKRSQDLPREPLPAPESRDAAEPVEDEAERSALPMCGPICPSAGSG

COc1cc(OC)c(Cl)c(-c2ccc3c(NC(=O)c4ccc(N5CCNC(C)(C)C5)cc4)n[nH]c3n2)c1Cl [3D185]
inhibition at 0.01 µM (CK1γ2(h); 10 nM): -9% | inhibition at 0.1 µM (CK1γ2(h); 100 nM): -8% | inhibition at 1 µM (CK1γ2(h); 1000 nM): -7% | inhibition at 0.01 µM (DYRK1A(h); 10 nM): -4% | inhibition at 0.1 µM (DYRK1A(h); 100 nM): 1% | inhibition at 1 µM (DYRK1A(h); 1000 nM): 5% | inhibition at 0.01 µM (DYRK3(h); 10 nM): -24% | inhibition at 0.1 µM (DYRK3(h); 100 nM): -31% | inhibition at 1 µM (DYRK3(h); 1000 nM): -27% | inhibition at 0.01 µM (LIMK1(h); 10 nM): 2% | inhibition at 0.1 µM (LIMK1(h); 100 nM): 8% | inhibition at 1 µM (LIMK1(h); 1000 nM): 0% | inhibition at 0.01 µM (MAK(h); 10 nM): -1% | inhibition at 0.1 µM (MAK(h); 100 nM): -9% | inhibition at 1 µM (MAK(h); 1000 nM): -17% | inhibition at 0.01 µM (Plk4(h); 10 nM): -18% | inhibition at 0.1 µM (Plk4(h); 100 nM): -20% | inhibition at 1 µM (Plk4(h); 1000 nM): -17% | inhibition at 0.01 µM (STK32C(h); 10 nM): 11% | inhibition at 0.1 µM (STK32C(h); 100 nM): 8% | inhibition at 1 µM (STK32C(h); 1000 nM): 7%
